Legend:
Assay type in all cases: in vivo
[1] = system: heat stressed transition dairy cattle; experiment: Example 2: feeding sorbitol to heat stressed transition dairy cattle (about 150 g/d prior to calving, about 125 g/d after), with and without evaporative cooling
Excerpt: In this example, the dairy cattle were blocked in the same manner as Example 1. During the study, the ambient temperature was between 70 degrees and 85 degrees during 62 percent of study and was greater than 85 degrees during 18 percent of the study.
After 30 days in milk, all postfresh cows were fed a common diet until 60 days post partum. The nutrient analysis of the total mixed rations for the control and sorbitol diets provided during the study are shown in Table 5C:
As provided in FIGS. 5A and 5B, sorbitol was provided in a base mix at a rate of 1.5 pounds per day for prefresh dairy cattle (e.g., for 28 days prior to calving) and at a rate of 1.25 pounds per day for post fresh dairy cattle (e.g., for 30 days post-calving).
From day 30 to day 60, all dairy cattle study groups received the same diet free of sorbitol (see Table 5).

[2] = system: dairy cattle in mid-lactation; experiment: Example 3: feeding sorbitol at about 100 grams per day to dairy cattle in mid-lactation, with and without misters; conditions: for 3.5% FCM / Body Weight / Daily Milk Yield / Dry Matter Intake / ECM / Milk Fat / Milk Protein: about 100 g/day
Excerpt: 64 dairy cattle were separated into four pens of 16 dairy cattle each pen was provided one of the four treatments described above in connection with Example 1. The treatment groups receiving sorbitol in the diet were provided 1 pound of premix per day during a ten week testing period. During the study, the temperature was between 70 degrees and 85 degrees during […] of study and was greater than 85 degrees during 25 percent of the study. […] [table] [table]

[3] = system: heat stressed lactating dairy cattle in a post-peak phase of lactation; experiment: Example 1: feeding about 100 grams of sorbitol per day to heat stressed lactating dairy cattle in post-peak phase, with and without evaporative cooling
Excerpt: In the Examples below, statistical analysis was completed for parameters studied such as milk yield, energy corrected milk (ECM), fat corrected milk (FCM), and dry matter intake. A P value of 0.10 means that 10 times out of 100 the results can be explained by factors other than the feeding of sorbitol versus the lack of sorbitol feeding. Likewise, a P value of 0.75 means that 75 times out of 100, the difference in value between the control group and the sorbitol-fed group may be explained by factors other than the feeding of the increased rate(s) of supplemental feed versus the lower rate of feeding of the supplemental feed (e.g., 4 pounds per head per day). For purposes of comparing data in this document, P values of 0.15, or lower, are considered statistically significant. Thus, where a P value of 0.15 or less is returned for particular results, it is assumed that the differing results may be explained by the test regimen, i.e.: the feeding of the increased rate(s) of supplemental feed versus the lower rate of feeding of the supplemental feed (e.g., 4 pounds per head per day). […] In this example, 32 multiparous cows were blocked by production and days in milk into one of two diets, a control diet without sorbitol and a diet with sorbitol, and each treatment group was divided into two cooling treatments. The four treatment groups included 1) a control diet with fans and no mist; 2) a sorbitol-supplemented diet with fans and no mist; 3) a control diet with fans and mist; and 4) a sorbitol-supplemented diet with fans and mist. During the study, the ambient temperature was between 70 degrees and 85 degrees during 51 percent of study and was greater than 85 degrees during 13 percent of the study. Heat stress in the dairy cattle was observed through changes in performance as well as increased respiration rates. Dairy cattle performance and respiration rates for the dairy cattle not receiving mister cooling is compared to dairy cattle receiving mist treatment in Table 1. The sorbitol in the sorbitol-supplemented diets was processed as an extruded pellet and added to other grain concentrates prior to final addition and delivery to the ruminant. [table] [table]

[4] = day 0 to 30 postpartum, Misters
[5] = day 0 to 30 postpartum, No Misters
[6] = day 0 to 60 postpartum (sorbitol-free common diet from day 30), Misters
[7] = day 0 to 60 postpartum (sorbitol-free common diet from day 30), No Misters
[8] = sorbitol without mister treatment
[9] = about 100 g sorbitol/day, post-peak, pooled across cooling strategies and day

## OC[C@@H](O)[C@@H](O)[C@H](O)[C@@H](O)CO [Sorbitol, sorbitol]
[1]; [4]
  Body Weight, post: 1259 lbs
  DMI as % BW: 3.05%
  Daily Milk Yield: 78.7 lbs/d
  Dry Matter Intake: 37.8 lbs/d
  ECM: 80.2 lbs/d
  FCM: 80.7 lbs/d
  Milk Fat: 3.53%
  Milk Protein: 2.81%
  Milk-to-Feed Ratio: 2.08
[1]; [5]
  Body Weight, post: 1232 lbs
  DMI as % BW: 3.03%
  Daily Milk Yield: 74.4 lbs/d
  Dry Matter Intake: 36.8 lbs/d
  ECM: 75.2 lbs/d
  FCM: 75.5 lbs/d
  Milk Fat: 3.42%
  Milk Protein: 2.81%
  Milk-to-Feed Ratio: 2.05
[1]; day 0 to 30 postpartum, sorbitol and mister treatment
  increase in milk yield compared to the control group without mister treatment: about 11.5 pounds per day
[1]; day 0 to 30 postpartum, sorbitol without mister treatment
  increase in milk yield compared to the control group without mister treatment: about 7.2 pounds per day
[1]; [6]
  Body Weight, post: 1261 lbs
  DMI as % BW: 3.45%
  Daily Milk Yield: 84.3 lbs/d
  Dry Matter Intake: 42.9 lbs/d
  ECM: 79.8 lbs/d
  FCM: 80.4 lbs/d
  Milk - to - Feed: 2.00
  Milk Fat: 3.17%
  Milk Protein: 2.66%
[1]; day 0 to 60 postpartum (sorbitol-free common diet from day 30), Misters, listed as sorbitol
  Milk - to - Feed: 2.0
[1]; [7]
  Body Weight, post: 1231 lbs
  DMI as % BW: 3.32%
  Daily Milk Yield: 81.2 lbs/d
  Dry Matter Intake: 41.1 lbs/d
  ECM: 77.3 lbs/d
  FCM: 77.7 lbs/d
  Milk - to - Feed: 1.97
  Milk Fat: 3.12%
  Milk Protein: 2.66%
[1]; day 0 to 60 postpartum, sorbitol and mister treatment
  increase in milk yield compared to the control group without mister treatment: about 11.3 pounds per day
[1]; day 0 to 60 postpartum, sorbitol without mister treatment
  increase in milk yield compared to the control group without mister treatment: about 8.2 pounds per day
[1]; transition phase, sorbitol groups vs control without misters
  beta hydroxy butyrate (BHBA) levels (FIG. 4): control group without mister treatment experienced a spike in BHBA levels compared to the sorbitol groups
[2]; Misters
  3.5% FCM: 66.7 lbs/d
  Body Weight: 1373 lbs
  Daily Milk Yield: 73.7 lbs/d
  Dry Matter Intake: 49.4 lbs/d
  ECM: 68.1 lbs/d
  Milk Fat: 2.92%
  Milk Protein: 2.92%
[2]; No Misters
  3.5% FCM: 66.0 lbs/d
  Body Weight: 1393 lbs
  Daily Milk Yield: 71.9 lbs/d
  Dry Matter Intake: 51.2 lbs/d
  ECM: 67.3 lbs/d
  Milk Fat: 3.03%
  Milk Protein: 2.92%
[2]; sorbitol and mister treatment
  increase in milk yield compared to the control group without mister treatment: about 3.5 pounds per day
[2]; [8]
  increase in milk yield compared to the control group without mister treatment: about 1.7 pounds per day
[3]; [9]
  DMI: 24.7 kg/day
  Daily Milk: 39.4 kg/day
  ECM: 37.2 kg/day
  FCM: 36.8 kg/day
  Fat: 1.23 kg/day
  Fat, %: 3.16%
  Milk to Feed: 1.60
  Protein: 1.12 kg/day
  Protein, %: 2.87%
  Respiration rates: 63.0
[3]; sorbitol and mister treatment
  performance: daily milk, ECM, FCM (FIG. 1): best overall performance in comparison to all other groups studied
[3]; sorbitol group with mister treatment
  milk-to-feed ratio (FIG. 3): 1.64 kg of milk for every kg of dry matter consumed
[3]; sorbitol group without mister treatment
  milk-to-feed ratio (FIG. 3): 1.55 kg of milk for every kg of dry matter consumed
[3]; sorbitol group without mister treatment vs control group with misters
  difference in ECM: 0.3 kg/day
[3]; sorbitol with and without mister treatment
  FCM results vs control: performed better than the control group with mister treatment and significantly better than the control group without mister treatment
[3]; sorbitol with vs without misters
  variation of dry matter intake between the two sorbitol groups: 0.4 kg/day
[3]; [8]
  ECM results vs control: performed significantly better than the control group without sorbitol and mister treatment
  performance: daily milk, ECM, FCM (FIG. 1): performed better than the control group without misters in all performance areas
[3]; the other groups (both sorbitol groups and control without misters) vs 28 for control with misters
  daily dry matter intake (FIG. 2): 25 kg/day

Reference: US11666541B2, “Systems and methods for feeding sugar alcohol to ruminants during periods of heat stress” (PURINA ANIMAL NUTRITION LLC, priority 2012, dated 2023)
